From ChEMBL document CHEMBL1201862, “PubChem BioAssay data set” (2004)
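Dose response: 5 concentrations. Exposure: 48 h. Format: 96-well plates. Endpoint: linear interpolation; highest concentration if not reached. GI50 = concentration required for 50% inhibition of growth.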 The source made the active and inactive calls. Cut-off read from the data, not from the text of the source: active = GI50 up to about 1.1 µM and inactive = higher.

Key:
Assay in all cases: NCI anticancer screen, dose series, 48 h
MDA-N = system: MDA-N
Malme-3M = system: Malme-3M
SF-295 = system: SF-295
SNB-75 = system: SNB-75
OVCAR-4 = system: OVCAR-4
RPMI-8226 = system: RPMI-8226
COLO 205 = system: COLO 205
MOLT-4 = system: MOLT-4
T47D = system: T47D
SF-539 = system: SF-539
CAKI-1 = system: CAKI-1
SW-620 = system: SW-620
LOX IMVI = system: LOX IMVI
SF-268 = system: SF-268
786-0 = system: 786-0
K562 = system: K562
ACHN = system: ACHN
A549 = system: A549
SN12C = system: SN12C

SMILES | GI50 (MDA-N) | GI50 (Malme-3M) | GI50 (SF-295) | GI50 (SNB-75) | GI50 (OVCAR-4) | GI50 (RPMI-8226) | GI50 (COLO 205) | GI50 (MOLT-4) | GI50 (T47D) | GI50 (SF-539) | GI50 (CAKI-1) | GI50 (SW-620) | GI50 (LOX IMVI) | GI50 (SF-268) | GI50 (786-0) | GI50 (K562) | GI50 (ACHN) | GI50 (A549) | GI50 (SN12C)
Nc1ccc(-c2nc3ccccc3s2)cc1Br | > 100 µM (inactive) | > 100 µM (inactive) | 66.7 µM (inactive) | 31.3 µM (inactive) | > 100 µM (inactive) | 70.8 µM (inactive) | > 100 µM (inactive) | 31.4 µM (inactive) | 58.1 µM (inactive) | > 51.3 µM (inactive) | > 100 µM (inactive) | > 100 µM (inactive) | > 80.9 µM (inactive) | 61 µM (inactive) | 76.9 µM (inactive) | 87.1 µM (inactive) | > 80.9 µM (inactive) | > 100 µM (inactive) | > 100 µM (inactive)
COc1cccc(NC(=O)CC(=O)N2N=C(C)C(/N=N\c3ccc(S(=O)(=O)c4ccc(/N=N/C5C(=O)N(C(=O)CC(=O)Nc6cccc(OC)c6)N=C5C)cc4)cc3)C2=O)c1 (centres undefined) | > 100 µM (inactive) | 58.9 µM (inactive) | > 100 µM (inactive) | > 100 µM (inactive) | > 100 µM (inactive) | > 100 µM (inactive) | > 100 µM (inactive) | > 100 µM (inactive) | > 100 µM (inactive) | > 100 µM (inactive) | > 100 µM (inactive) | > 100 µM (inactive) | > 100 µM (inactive) | > 100 µM (inactive) | > 100 µM (inactive) | > 100 µM (inactive) | > 100 µM (inactive) | > 100 µM (inactive) | > 100 µM (inactive)
COc1cc(NC(C)=O)ccc1C(=O)N/N=C/c1ccc(Cl)cc1Cl | 23.6 µM (inactive) | 57.1 µM (inactive) | 57 µM (inactive) | 13.6 µM (inactive) | 23.2 µM (inactive) | 65.6 µM (inactive) | > 100 µM (inactive) | 73.8 µM (inactive) | 16.3 µM (inactive) | 87.7 µM (inactive) | 39.6 µM (inactive) | > 100 µM (inactive) | 69.2 µM (inactive) | 32.6 µM (inactive) | 24.9 µM (inactive) | 50.2 µM (inactive) | 31.4 µM (inactive) | 48 µM (inactive) | 22.4 µM (inactive)
Cc1cc2nc(C=C(C(F)(F)F)C(F)(F)F)oc2cc1C | > 10 µM (inactive) | 1.97 µM (inactive) | > 10 µM (inactive) | 4.55 µM (inactive) | 3.18 µM (inactive) | 1.55 µM (inactive) | 0.199 µM (active) | 1.85 µM (inactive) | 2.94 µM (inactive) | 2.88 µM (inactive) | 2.42 µM (inactive) | 1.73 µM (inactive) | 2.09 µM (inactive) | 3.42 µM (inactive) | 1.96 µM (inactive) | 2.25 µM (inactive) | 5.06 µM (inactive) | 5.12 µM (inactive) | 2.41 µM (inactive)
NCCSS(=O)(=O)CCN | > 100 µM (inactive) | > 100 µM (inactive) | > 100 µM (inactive) | > 100 µM (inactive) | > 100 µM (inactive) | > 100 µM (inactive) | > 100 µM (inactive) | > 100 µM (inactive) | > 100 µM (inactive) | > 100 µM (inactive) | > 100 µM (inactive) | > 100 µM (inactive) | > 100 µM (inactive) | > 100 µM (inactive) | > 100 µM (inactive) | > 100 µM (inactive) | > 100 µM (inactive) | > 100 µM (inactive) | > 100 µM (inactive)
O=C1Sc2cc3ccccc3cc2C(=O)Sc2cc3ccccc3cc21 | 29 µM (inactive) | 34.9 µM (inactive) | > 87.3 µM (inactive) | 38.8 µM (inactive) | 23.2 µM (inactive) | 6.68 µM (inactive) | > 100 µM (inactive) | 15.9 µM (inactive) | 23.3 µM (inactive) | 31.9 µM (inactive) | 32.2 µM (inactive) | 30.3 µM (inactive) | 19 µM (inactive) | 26 µM (inactive) | 15.4 µM (inactive) | 27 µM (inactive) | 28.9 µM (inactive) | 81.7 µM (inactive) | 23.2 µM (inactive)
CC(C)/C(Cl)=N\OC(=O)Nc1ccccc1F | 16.6 µM (inactive) | 3.94 µM (inactive) | 16.3 µM (inactive) | 10.2 µM (inactive) | 17.3 µM (inactive) | 6.04 µM (inactive) | 2.03 µM (inactive) | 2.82 µM (inactive) | 20.9 µM (inactive) | 17.3 µM (inactive) | 21.3 µM (inactive) | 1.88 µM (inactive) | 2.55 µM (inactive) | 21 µM (inactive) | 16.4 µM (inactive) | 1.95 µM (inactive) | 12.4 µM (inactive) | 18.7 µM (inactive) | 10 µM (inactive)
O=C(CC(O)(C(F)(F)F)C(F)(F)Cl)CC(O)(C(F)(F)F)C(F)(F)Cl (centres undefined) | 3.21 µM (inactive) | 1.14 µM (inactive) | 2.4 µM (inactive) | 2.82 µM (inactive) | 1.42 µM (inactive) | 7.1 µM (inactive) | 1.69 µM (inactive) | 6.27 µM (inactive) | 1.49 µM (inactive) | 1.34 µM (inactive) | 2.74 µM (inactive) | 3.86 µM (inactive) | 2.82 µM (inactive) | 2.31 µM (inactive) | 3.47 µM (inactive) | 2.76 µM (inactive) | 1.77 µM (inactive) | 2.37 µM (inactive) | 1.5 µM (inactive)
COc1ccc(C(=O)N(Cc2cccnc2)C(=S)N(Cc2cccnc2)C(=O)c2ccc(OC)cc2)cc1 | > 100 µM (inactive) | > 100 µM (inactive) | 57.8 µM (inactive) | 17.2 µM (inactive) | 37.4 µM (inactive) | > 100 µM (inactive) | > 100 µM (inactive) | > 100 µM (inactive) | > 100 µM (inactive) | > 100 µM (inactive) | 86.9 µM (inactive) | > 100 µM (inactive) | > 100 µM (inactive) | 52.1 µM (inactive) | > 100 µM (inactive) | > 100 µM (inactive) | > 100 µM (inactive) | > 100 µM (inactive) | > 100 µM (inactive)
CC(CNC(N)=O)NC(N)=O (centres undefined) | > 100 µM (inactive) | > 100 µM (inactive) | > 100 µM (inactive) | > 100 µM (inactive) | > 100 µM (inactive) | > 100 µM (inactive) | > 100 µM (inactive) | > 100 µM (inactive) | > 100 µM (inactive) | > 100 µM (inactive) | > 100 µM (inactive) | > 100 µM (inactive) | > 100 µM (inactive) | > 100 µM (inactive) | > 100 µM (inactive) | > 100 µM (inactive) | > 100 µM (inactive) | > 100 µM (inactive) | > 100 µM (inactive)
O=c1[nH]c(=O)n(C2CC(O)C(CO)O2)cc1I (centres undefined) | > 100 µM (inactive) | > 100 µM (inactive) | > 100 µM (inactive) | > 100 µM (inactive) | > 100 µM (inactive) | > 43.8 µM (inactive) | > 100 µM (inactive) | 75.7 µM (inactive) | > 100 µM (inactive) | > 100 µM (inactive) | 63.8 µM (inactive) | > 100 µM (inactive) | > 87.1 µM (inactive) | > 100 µM (inactive) | > 100 µM (inactive) | > 23.1 µM (inactive) | > 100 µM (inactive) | > 73.1 µM (inactive) | 89.9 µM (inactive)
